Reference: US20120094998A1, “Oligomer-Protein Tyrosine Kinase Inhibitor Conjugates” (Nektar Therapeutics, priority 2009, published 2012)
Converted amounts (≈) assume the structure as drawn. Read-outs that look alike come from different tables or passages of the source.

Key:
[1] = Caco-2 permeability (bi-directional; pH 7.4/pH 7.4); format: in vitro ADME; details: human, Caco-2, pH 7.4; read-out: Permeability (cm^2/s × 10^6)
Description: Caco-2 cells are used as an in vitro model of the human intestinal epithelium and permit assessment of the intestinal permeability of potential drugs. Test compound is added to either the apical or basolateral side of a confluent monolayer of Caco-2 cells and permeability is measured by monitoring the appearance of the test compound on the opposite side of the membrane using LC-MS/MS. Apparent permeability (Papp) coefficients, efflux ratio for the test compound and recovery values were determined.
To measure the permeability of test compound in the apical to basolateral (A-B) and basolateral to apical (B-A) direction across Caco-2 cells.
Caco-2 cells obtained from the ATCC are used between passage numbers 40-60. Cells are seeded on to Millipore Multiscreen Caco-2 plates at 1×10^5 cells/cm^2. They are cultured for 20 days in DMEM and media is changed every two or three days. On day 20 the permeability study is performed.
On day 20, the monolayers are prepared by rinsing both basolateral and apical surfaces twice with HBSS at 37° C. Cells are then incubated with HBSS in both apical and basolateral compartments for 40 min to stabilize physiological parameters. HBSS is then removed from the apical compartment and replaced with test compound dosing solutions. […] The fluorescent integrity marker lucifer yellow is also included in the dosing solution. Analytical standards are made from dosing solutions. The apical compartment inserts are then placed into ‘companion’ plates containing fresh HBSS. For basolateral to apical (B-A) permeability determination the experiment is initiated by replacing buffer in the inserts then placing them in companion plates containing dosing solutions. At 120 minutes the companion plate is removed and apical and basolateral samples diluted for analysis by LC-MS/MS. Test compound permeability was assessed in duplicate. On each plate, compounds of known permeability characteristics were run as controls.
Test and control compounds were quantified by LC-MS/MS cassette analysis using a 5-point calibration with appropriate dilution of the samples. Cyprotex generic analytical conditions were used. The starting concentration (C0) and experimental recovery were calculated from both apical and basolateral compartment concentrations.
The integrity of the monolayers throughout the experiment was checked by monitoring lucifer yellow permeation using fluorimetric analysis. Lucifer yellow permeation is low if monolayers have not been damaged. […] If lucifer yellow Papp values are above QC limits in both replicate wells for a test compound, the compound was re-tested.
Data Analysis: The permeability coefficient for each compound (Papp) is calculated from the following equation: […]
wherein dQ/dt is the rate of permeation of the drug across the cells, C0 is the donor compartment concentration at time zero and A is the area of the cell monolayer. C0 is obtained from analysis of donor and receiver compartments at the end of the incubation period. It is assumed that all of the test compound measured after 120 minutes incubation was initially present in the donor compartment at 0 minutes. An efflux ratio (ER) is derived as follows:
Talinolol (a known P-gp substrate) is also included as a control compound to assess whether functional P-gp is present in the Caco-2 cell monolayer.

Thermodynamic solubility = format: physicochemical; details: aqueous buffer, thermodynamic from solid; phosphate buffered saline, pH 7.4; ambient temperature overnight
Description: Test compound (2.5 mg of solid; n=1) is weighed in a clear glass vial and buffer (0.5 mL) is added (phosphate buffered saline, pH 7.4). The solution is agitated at ambient temperature overnight using a vial roller system. […] Duplicate aliquots (50 μL) are sampled from the filtrate and diluted with one volume of 0.1 N hydrochloric acid and methanol (1:1 v/v) before analysis by HPLC-UV. […] The concentration of test compound in the filtrate is quantified relative to the concentration standard.
Analysis is performed using a gradient HPLC-UV system with a total cycle time of six minutes.

ABL [2] = biological target: T1, ABL (Homo sapiens, UniProt P00519); assay: Off-chip mobility-shift kinase assay (Caliper LABCHIP), ABL; details: for ABL AVG % Activity at 1.0E−09: concentration 1.0E−09; for ABL AVG % Activity at 1.0E−09 / ABL AVG % Activity at 1.0E−10 / ABL AVG % Activity at 1.0E−11 / ABL AVG % Activity at 3.0E−09 / ABL AVG % Activity at 3.0E−10 / ABL AVG % Activity at 3.0E−11: dasatinib-corresponding compounds; for ABL AVG % Activity at 1.0E−10: concentration 1.0E−10; for ABL AVG % Activity at 1.0E−11: concentration 1.0E−11; for ABL AVG % Activity at 3.0E−09: concentration 3.0E−09; for ABL AVG % Activity at 3.0E−10: concentration 3.0E−10; for ABL AVG % Activity at 3.0E−11: concentration 3.0E−11
T1 sequence (P00519 whole entry): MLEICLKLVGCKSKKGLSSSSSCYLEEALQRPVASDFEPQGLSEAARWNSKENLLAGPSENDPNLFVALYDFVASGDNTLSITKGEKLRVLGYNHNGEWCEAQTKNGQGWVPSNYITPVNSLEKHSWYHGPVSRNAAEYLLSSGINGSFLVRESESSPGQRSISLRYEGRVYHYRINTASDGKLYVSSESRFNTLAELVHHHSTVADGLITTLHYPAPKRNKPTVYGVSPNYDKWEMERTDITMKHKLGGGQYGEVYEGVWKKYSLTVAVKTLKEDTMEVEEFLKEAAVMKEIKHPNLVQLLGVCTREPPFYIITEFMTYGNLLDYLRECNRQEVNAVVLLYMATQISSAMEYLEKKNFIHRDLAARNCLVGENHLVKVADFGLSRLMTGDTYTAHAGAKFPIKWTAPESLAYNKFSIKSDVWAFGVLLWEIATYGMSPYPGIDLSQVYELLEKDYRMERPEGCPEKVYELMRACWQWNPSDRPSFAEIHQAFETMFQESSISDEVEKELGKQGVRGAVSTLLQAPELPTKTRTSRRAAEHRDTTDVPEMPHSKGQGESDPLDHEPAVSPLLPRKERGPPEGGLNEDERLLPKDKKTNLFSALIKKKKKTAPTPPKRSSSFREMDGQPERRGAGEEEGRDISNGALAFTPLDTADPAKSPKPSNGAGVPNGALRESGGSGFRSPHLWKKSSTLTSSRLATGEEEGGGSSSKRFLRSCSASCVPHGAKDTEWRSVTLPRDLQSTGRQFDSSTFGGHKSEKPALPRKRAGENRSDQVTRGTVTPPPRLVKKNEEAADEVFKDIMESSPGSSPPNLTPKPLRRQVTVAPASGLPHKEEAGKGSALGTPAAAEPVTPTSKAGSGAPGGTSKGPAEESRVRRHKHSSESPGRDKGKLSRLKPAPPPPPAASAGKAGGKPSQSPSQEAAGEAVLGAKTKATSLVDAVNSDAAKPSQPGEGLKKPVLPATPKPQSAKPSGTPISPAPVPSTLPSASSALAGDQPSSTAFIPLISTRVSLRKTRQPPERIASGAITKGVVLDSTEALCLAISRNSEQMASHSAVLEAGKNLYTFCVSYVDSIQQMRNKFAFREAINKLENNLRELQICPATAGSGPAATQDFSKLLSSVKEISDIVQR

ABL [3] = biological target: T1, ABL

| Structure (SMILES) | Papp A→B at 120 min, 10 μM [1] | solubility (Thermodynamic solubility) | IC50 (ABL [2]) | ABL AVG % Activity at 1.0E−09 (ABL [2]) | ABL AVG % Activity at 1.0E−10 (ABL [2]) | ABL AVG % Activity at 1.0E−11 (ABL [2]) | ABL AVG % Activity at 3.0E−09 (ABL [2]) | ABL AVG % Activity at 3.0E−10 (ABL [2]) | ABL AVG % Activity at 3.0E−11 (ABL [2]) | further results |
| --- | --- | --- | --- | --- | --- | --- | --- | --- | --- | --- |
| COCCOCCOCCNCc1ccc(C(=O)Nc2ccc(C)c(Nc3nccc(-c4cccnc4)n3)c2)cc1 [mPEG3-N-Imatinib] | 0.6 ± 0.07 ×10⁻⁶ cm/s | 3300 µg/mL (≈ 5.93 mM) |  |  |  |  |  |  |  |  |
| COCCOCCOCCN1CCN(Cc2ccc(C(=O)Nc3ccc(C)c(Nc4nccc(-c5cccnc5)n4)c3)cc2)CC1 [mPEG3-N′-Imatinib] | 4 ± 0.8 ×10⁻⁶ cm/s | 500 µg/mL (≈ 0.799 mM) |  |  |  |  |  |  |  |  |
| COCCOCCOCCOCCOCCOCCOCCOCCOCCNC(=O)OCCN1CCN(c2cc(Nc3ncc(C(=O)Nc4c(C)cccc4Cl)s3)nc(C)n2)CC1 [mPEG9-NHCOO-Dasatinib] |  |  | 310 pM | 4% | 80% | 97% | −1% | 47% | 92% |  |

Now from value to molecule, other results behind:

| Papp A→B at 120 min, 10 μM [1] | solubility (Thermodynamic solubility) | IC50 (ABL [2]) | ABL AVG % Activity at 1.0E−09 (ABL [2]) | ABL AVG % Activity at 1.0E−10 (ABL [2]) | ABL AVG % Activity at 1.0E−11 (ABL [2]) | ABL AVG % Activity at 3.0E−09 (ABL [2]) | ABL AVG % Activity at 3.0E−10 (ABL [2]) | ABL AVG % Activity at 3.0E−11 (ABL [2]) | Structure (SMILES) | further results |
| --- | --- | --- | --- | --- | --- | --- | --- | --- | --- | --- |
|  |  | 300 pM | 4% | 80% | 97% | −1% | 45% | 94% | COCCOCCOCCOCCOCCNC(=O)OCCN1CCN(c2cc(Nc3ncc(C(=O)Nc4c(C)cccc4Cl)s3)nc(C)n2)CC1 [mPEG5-NHCOO-Dasatinib] |  |
|  |  | 290 pM |  |  |  |  |  |  | COCCOCCOCCOCC(=O)OCCN1CCN(c2cc(Nc3ncc(C(=O)Nc4c(C)cccc4Cl)s3)nc(C)n2)CC1 [mPEG3-COO-Dasatinib] | ABL AVG % Activity at 1.0E−09 (ABL [3]): 2%; ABL AVG % Activity at 1.0E−10 (ABL [3]): 80%; ABL AVG % Activity at 1.0E−11 (ABL [3]): 98%; ABL AVG % Activity at 3.0E−09 (ABL [3]): −1%; ABL AVG % Activity at 3.0E−10 (ABL [3]): 44%; ABL AVG % Activity at 3.0E−11 (ABL [3]): 92% |
